The text below walks through data of PMC6704710, “Preclinical evaluation of 3D185, a novel potent inhibitor of FGFR1/2/3 and CSF-1R, in FGFR-dependent and macrophage-dominant cancer models” (Journal of Experimental & Clinical Cancer Research : CR, 2019).

What all share (test): Eurofins kinase panel
Holding throughout (assay type): biochemical
Common to all, as to conditions: read-out: Inhibition rate (%)

One assay has as its target T1, IR(h), activated (Homo sapiens, UniProt P06213).
T1 construct: purchased Eurofins (KinaseProfiler)

The target in another assay is T2, EphB2(h) (Homo sapiens, UniProt P29323).
T2 construct: purchased Eurofins (KinaseProfiler)
T2 sequence (P29323 19-1055): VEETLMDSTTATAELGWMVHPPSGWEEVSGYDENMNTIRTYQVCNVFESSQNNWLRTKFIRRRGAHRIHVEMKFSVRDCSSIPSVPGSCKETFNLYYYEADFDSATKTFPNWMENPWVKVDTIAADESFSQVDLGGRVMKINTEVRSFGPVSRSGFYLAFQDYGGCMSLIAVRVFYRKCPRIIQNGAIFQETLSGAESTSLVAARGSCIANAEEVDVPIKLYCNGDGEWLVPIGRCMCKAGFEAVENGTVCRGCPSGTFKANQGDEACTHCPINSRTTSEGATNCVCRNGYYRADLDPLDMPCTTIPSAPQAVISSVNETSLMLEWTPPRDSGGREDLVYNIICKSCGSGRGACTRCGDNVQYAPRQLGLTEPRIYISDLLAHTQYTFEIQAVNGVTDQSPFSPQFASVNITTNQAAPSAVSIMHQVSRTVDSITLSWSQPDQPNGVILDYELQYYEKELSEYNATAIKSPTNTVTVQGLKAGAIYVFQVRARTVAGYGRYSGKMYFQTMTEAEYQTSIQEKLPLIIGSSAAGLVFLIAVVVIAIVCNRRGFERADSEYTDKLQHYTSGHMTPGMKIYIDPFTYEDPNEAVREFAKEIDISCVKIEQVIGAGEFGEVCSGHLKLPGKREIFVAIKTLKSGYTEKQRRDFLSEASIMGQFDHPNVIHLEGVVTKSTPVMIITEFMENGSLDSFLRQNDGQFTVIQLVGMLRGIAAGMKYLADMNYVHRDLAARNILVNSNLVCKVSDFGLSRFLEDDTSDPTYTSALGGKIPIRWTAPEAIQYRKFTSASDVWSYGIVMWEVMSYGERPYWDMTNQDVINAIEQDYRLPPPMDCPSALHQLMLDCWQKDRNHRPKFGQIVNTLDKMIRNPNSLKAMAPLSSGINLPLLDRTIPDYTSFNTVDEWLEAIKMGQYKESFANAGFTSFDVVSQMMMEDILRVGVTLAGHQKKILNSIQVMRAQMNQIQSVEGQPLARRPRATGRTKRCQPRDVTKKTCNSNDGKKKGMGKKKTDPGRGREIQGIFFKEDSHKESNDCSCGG

The next assay has as its target T3, NEK2(h) (Homo sapiens, UniProt P51955).
T3 construct: purchased Eurofins (KinaseProfiler)
T3 sequence (P51955 1-445): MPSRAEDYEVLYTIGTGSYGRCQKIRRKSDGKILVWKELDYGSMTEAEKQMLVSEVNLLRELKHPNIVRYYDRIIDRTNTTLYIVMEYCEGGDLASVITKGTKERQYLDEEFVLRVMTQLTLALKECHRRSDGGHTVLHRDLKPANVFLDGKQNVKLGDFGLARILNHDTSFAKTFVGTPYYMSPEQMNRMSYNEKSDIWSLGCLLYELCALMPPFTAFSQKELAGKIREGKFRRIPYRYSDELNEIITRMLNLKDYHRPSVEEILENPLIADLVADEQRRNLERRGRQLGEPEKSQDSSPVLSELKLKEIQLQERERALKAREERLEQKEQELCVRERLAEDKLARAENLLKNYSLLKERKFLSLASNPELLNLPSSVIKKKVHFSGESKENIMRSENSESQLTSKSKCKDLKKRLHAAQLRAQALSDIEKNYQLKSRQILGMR

The target in the next assay is T4, EphA7(h) (Homo sapiens, UniProt Q15375).
T4 construct: purchased Eurofins (KinaseProfiler)

The next assay has as its target T5, GRK6(h) (Homo sapiens, UniProt P43250).
T5 construct: purchased Eurofins (KinaseProfiler)

For a further assay, the target named is T6, AMPKα1(h) (Homo sapiens, UniProt Q13131).
T6 construct: purchased Eurofins (KinaseProfiler)

The target in a further assay is T7, Haspin(h) (Homo sapiens, UniProt Q8TF76).
T7 construct: purchased Eurofins (KinaseProfiler)
T7 sequence (Q8TF76 1-798): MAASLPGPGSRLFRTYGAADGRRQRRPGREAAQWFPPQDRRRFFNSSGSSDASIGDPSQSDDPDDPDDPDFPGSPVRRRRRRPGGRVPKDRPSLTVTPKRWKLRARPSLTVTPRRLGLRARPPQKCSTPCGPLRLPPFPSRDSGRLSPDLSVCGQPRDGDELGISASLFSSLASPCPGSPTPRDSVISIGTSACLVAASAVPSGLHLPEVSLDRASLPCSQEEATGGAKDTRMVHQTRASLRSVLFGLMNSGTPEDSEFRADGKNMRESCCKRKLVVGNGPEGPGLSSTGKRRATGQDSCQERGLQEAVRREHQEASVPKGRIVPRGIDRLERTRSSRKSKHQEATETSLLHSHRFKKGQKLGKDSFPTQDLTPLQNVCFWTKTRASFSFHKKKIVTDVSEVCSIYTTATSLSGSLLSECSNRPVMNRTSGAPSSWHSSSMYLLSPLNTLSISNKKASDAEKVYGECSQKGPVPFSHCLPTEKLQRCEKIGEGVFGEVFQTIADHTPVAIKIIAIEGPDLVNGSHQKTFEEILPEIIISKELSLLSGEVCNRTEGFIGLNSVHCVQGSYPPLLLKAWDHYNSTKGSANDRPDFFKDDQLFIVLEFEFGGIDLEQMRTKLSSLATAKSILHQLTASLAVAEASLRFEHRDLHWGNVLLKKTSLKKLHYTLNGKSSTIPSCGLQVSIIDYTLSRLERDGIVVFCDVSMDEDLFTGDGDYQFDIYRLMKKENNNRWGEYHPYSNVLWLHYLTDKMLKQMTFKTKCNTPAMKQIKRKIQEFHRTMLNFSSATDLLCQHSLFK

SMILES strings stand for the structures.

T5 sequence (P43250 whole entry): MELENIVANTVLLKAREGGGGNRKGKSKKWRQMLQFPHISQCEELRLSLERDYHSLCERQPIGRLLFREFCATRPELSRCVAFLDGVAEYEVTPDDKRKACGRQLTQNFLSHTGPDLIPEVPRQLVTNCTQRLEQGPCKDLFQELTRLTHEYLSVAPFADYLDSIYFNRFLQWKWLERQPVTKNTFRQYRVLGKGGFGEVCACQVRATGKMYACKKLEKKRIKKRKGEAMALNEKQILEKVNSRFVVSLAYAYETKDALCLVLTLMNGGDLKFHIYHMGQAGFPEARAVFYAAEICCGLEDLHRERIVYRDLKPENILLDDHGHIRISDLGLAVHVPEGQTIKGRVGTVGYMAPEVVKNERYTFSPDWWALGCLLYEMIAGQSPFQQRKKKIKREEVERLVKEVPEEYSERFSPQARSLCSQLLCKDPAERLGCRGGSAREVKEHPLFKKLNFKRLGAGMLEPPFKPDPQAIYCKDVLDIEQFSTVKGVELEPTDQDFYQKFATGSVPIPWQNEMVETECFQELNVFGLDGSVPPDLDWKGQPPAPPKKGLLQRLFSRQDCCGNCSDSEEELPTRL
T1 sequence (P06213 28-1382): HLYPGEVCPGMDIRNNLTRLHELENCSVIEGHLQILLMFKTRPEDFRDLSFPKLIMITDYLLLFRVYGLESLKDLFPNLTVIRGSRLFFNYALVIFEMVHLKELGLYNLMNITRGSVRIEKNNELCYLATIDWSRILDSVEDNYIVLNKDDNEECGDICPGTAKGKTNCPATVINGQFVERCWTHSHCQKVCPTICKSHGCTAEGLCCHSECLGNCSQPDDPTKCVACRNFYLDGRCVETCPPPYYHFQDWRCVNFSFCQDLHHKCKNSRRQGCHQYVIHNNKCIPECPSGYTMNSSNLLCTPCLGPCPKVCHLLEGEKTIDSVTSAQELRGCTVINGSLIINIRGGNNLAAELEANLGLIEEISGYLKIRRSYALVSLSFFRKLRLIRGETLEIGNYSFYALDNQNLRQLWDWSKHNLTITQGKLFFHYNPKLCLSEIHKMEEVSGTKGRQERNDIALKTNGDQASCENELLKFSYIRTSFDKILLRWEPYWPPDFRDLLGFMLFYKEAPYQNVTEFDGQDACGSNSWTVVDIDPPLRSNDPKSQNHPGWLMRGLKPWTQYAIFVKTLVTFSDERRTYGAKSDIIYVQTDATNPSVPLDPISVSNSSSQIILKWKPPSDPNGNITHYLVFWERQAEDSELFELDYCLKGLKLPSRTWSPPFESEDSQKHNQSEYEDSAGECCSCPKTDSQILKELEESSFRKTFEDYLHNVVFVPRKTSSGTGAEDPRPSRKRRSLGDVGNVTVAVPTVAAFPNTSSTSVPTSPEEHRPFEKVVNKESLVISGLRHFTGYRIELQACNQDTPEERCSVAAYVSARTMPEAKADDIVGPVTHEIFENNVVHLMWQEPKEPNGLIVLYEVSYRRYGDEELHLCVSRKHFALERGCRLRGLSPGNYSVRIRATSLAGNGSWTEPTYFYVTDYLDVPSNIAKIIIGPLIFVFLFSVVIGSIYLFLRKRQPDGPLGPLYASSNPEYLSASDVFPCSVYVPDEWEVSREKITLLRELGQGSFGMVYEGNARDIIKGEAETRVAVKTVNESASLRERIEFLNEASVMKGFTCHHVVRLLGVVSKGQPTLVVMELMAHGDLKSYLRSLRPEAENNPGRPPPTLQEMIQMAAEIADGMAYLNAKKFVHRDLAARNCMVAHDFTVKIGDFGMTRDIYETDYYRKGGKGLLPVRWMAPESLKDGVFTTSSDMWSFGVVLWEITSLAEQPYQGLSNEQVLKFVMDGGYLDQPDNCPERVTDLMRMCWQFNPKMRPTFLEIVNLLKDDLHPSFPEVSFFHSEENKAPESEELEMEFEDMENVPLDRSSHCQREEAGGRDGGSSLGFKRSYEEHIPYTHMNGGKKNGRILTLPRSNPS
T6 sequence (Q13131 whole entry): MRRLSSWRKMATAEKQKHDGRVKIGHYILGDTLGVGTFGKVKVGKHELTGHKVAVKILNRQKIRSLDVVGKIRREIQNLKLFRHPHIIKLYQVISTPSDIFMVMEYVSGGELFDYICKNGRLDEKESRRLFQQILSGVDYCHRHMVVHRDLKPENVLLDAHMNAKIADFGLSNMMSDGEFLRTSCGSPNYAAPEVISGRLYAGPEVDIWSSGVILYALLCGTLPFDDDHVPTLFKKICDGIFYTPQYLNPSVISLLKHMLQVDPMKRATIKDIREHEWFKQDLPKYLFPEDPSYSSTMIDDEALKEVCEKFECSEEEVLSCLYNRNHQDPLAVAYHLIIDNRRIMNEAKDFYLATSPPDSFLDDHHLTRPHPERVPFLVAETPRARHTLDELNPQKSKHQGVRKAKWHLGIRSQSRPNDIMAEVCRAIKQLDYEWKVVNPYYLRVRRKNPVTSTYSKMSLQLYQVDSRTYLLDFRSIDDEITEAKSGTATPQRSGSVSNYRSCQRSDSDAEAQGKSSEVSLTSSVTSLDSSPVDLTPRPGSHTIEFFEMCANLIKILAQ
T6 sequence (Q9Y478 whole entry partner): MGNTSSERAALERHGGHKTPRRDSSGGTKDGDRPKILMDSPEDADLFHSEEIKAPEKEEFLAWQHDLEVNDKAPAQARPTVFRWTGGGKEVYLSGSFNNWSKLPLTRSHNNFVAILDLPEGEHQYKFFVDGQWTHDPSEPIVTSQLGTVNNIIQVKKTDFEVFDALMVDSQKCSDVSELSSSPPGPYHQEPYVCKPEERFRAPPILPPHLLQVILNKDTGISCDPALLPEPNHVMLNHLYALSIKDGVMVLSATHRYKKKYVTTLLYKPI
T6 sequence (P54619 whole entry partner): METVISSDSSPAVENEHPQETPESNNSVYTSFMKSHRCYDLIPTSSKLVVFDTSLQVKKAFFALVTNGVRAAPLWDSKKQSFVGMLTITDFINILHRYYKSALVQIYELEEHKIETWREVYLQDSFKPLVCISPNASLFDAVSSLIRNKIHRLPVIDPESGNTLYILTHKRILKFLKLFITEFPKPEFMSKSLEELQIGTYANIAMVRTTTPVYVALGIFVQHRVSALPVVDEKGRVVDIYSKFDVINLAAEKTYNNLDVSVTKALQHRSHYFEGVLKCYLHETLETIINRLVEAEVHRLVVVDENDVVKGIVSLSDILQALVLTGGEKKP
T4 sequence (Q15375 28-998): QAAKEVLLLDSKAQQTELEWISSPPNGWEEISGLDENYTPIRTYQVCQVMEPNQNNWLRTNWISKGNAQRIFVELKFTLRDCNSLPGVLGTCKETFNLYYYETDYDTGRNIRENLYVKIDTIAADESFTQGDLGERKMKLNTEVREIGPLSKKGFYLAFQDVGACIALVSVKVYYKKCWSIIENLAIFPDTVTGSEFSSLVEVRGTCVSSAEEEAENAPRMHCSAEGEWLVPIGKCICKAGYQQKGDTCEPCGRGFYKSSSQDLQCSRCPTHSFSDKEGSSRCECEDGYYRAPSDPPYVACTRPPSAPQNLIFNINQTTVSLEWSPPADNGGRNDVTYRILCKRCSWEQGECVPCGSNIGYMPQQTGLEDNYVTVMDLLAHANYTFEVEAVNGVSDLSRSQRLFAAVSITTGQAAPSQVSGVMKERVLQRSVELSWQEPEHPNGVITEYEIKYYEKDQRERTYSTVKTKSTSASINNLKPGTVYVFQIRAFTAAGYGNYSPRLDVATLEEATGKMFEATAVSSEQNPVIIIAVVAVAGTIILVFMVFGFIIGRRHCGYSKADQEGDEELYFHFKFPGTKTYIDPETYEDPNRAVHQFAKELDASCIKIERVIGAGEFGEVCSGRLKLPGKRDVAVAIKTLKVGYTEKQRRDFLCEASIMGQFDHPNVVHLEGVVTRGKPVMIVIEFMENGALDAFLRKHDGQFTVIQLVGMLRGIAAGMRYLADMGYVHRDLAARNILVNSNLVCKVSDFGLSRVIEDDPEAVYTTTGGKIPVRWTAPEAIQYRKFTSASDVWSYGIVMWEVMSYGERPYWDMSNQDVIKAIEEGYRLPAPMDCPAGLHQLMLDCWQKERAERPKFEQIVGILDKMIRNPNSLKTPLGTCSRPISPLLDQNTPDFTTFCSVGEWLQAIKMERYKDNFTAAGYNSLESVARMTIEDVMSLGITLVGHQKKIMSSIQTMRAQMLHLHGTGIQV

The inhibition is the drop in the measured response relative to a control, in per cent. In the case of `COc1cc(OC)c(Cl)c(-c2ccc3c(NC(=O)c4ccc(N5CCNC(C)(C)C5)cc4)n[nH]c3n2)c1Cl` [3D185], the inhibition at 0.01 µM was 9% at IR(h), activated (10 nM); 12% at EphB2(h) (10 nM); 15% on NEK2(h) (10 nM); 0% at EphA7(h) (10 nM); -4% at GRK6(h) (10 nM); -8% on AMPKα1(h) (10 nM). Also, the inhibition at 0.01 µM at Haspin(h) (10 nM) was -15%. Moreover, the inhibition at 0.1 µM at IR(h), activated (100 nM) is 42%; at EphB2(h) (100 nM), 6%; on NEK2(h) (100 nM), 67%; at EphA7(h) (100 nM) it was 8%; at GRK6(h) (100 nM), -6%; on AMPKα1(h) (100 nM), -6%. Further, at Haspin(h) (100 nM), the inhibition at 0.1 µM was -6%. Besides, the inhibition at 1 µM on IR(h), activated (1000 nM) was 85%; on EphB2(h) (1000 nM), 15%; at NEK2(h) (1000 nM), 94%; at EphA7(h) (1000 nM) it was 21%; at GRK6(h) (1000 nM) it was -5%; on AMPKα1(h) (1000 nM), -13%. Besides, at Haspin(h) (1000 nM), the inhibition at 1 µM was determined as 4%.
